One substance from patent publication US20240368605A1, “USE OF SPLICE SWITCHING OLIGONUCLEOTIDES FOR EXON SKIPPING-MEDIATED KNOCKDOWN OF PIM2” (INSTITUT NATIONAL DE LA SANTÉ ET DE LA RECHERCHE MÉDICALE, priority 2021, published 2024) can be followed below.

For this data set, the system named is PBs. Put plainly: Mitochondria/Caspase 3-driven apoptosis and viability of PBs. In kind it is cell-based, human. The note with it: PBs. The source says:
Mitochondrial-driven cell death is activated once the mitochondria lose the ability to maintain the inner membrane potential, resulting in the release of proapoptotic proteins into the cytosol. Commitment towards PBs is sustained by an extensive reconfiguration of the epigenetic landscape and of gene expression patterns, both showing that the most prominent function involves cell death and survival (Caron et al., 2015). […] We then investigated the different cell subsets generated through the differentiation model at the protein level for factors involved in apoptosis triggered by mitochondria (data not shown). The PBs compared to all other subsets increased the expression of pBAD and XIAP, both proteins counteract the apoptotic pathway and were described in PIM2-induced survival effect (data not shown) (Fox, 2003; Macdonald et al., 2006; Yan et al., 2003). In accordance with this finding and despite a strong increase in procaspase 3 protein (32 kDa size), PBs decrease the autocatalytic activity of Caspase 3 and therefore the production of p19/p17 apoptosis executors as highlighted by the low levels of cleaved PARP (data not shown) (Ponder and Boise, 2019). […] In addition, we found in P2/CD23+ cells a complete degradation of PARP which illustrate the fact that the apoptosis process is consubstantially associated with the B cell terminal differentiation if cells are not otherwise protected (data not shown).
We then inhibited PIM2 which led to an intense activation of Caspase 3 and a decrease of viability of PBs. The latter was rescued by the Caspase 3 inhibitor Q-DEVD-OPH (data not shown).
The differentiation of immature monocytes is associated with a relocalization of nuclear p21^Cip1/WAF1 to the cytoplasm where the protein participates to apoptosis blockage (Asada, 1999). In addition, Suzuki et al. ascribed the formation of a Procaspase 3/p21^Cip1/WAF1 complex in the context of resistance to Fas-mediated cell death owing to the phosphorylation of p21 by protein kinase A (Suzuki et al., 2000). We wanted therefore to explore whether p21^Cip1/WAF1 may bind Procaspase 3 and developed to this end a FRET approach which detected a signal of energy transfer compatible with such physical interaction. […] We then confirmed the binding between p21^Cip1/WAF1 and Caspase 3 in XG21 cells and in PBs by IP (data not shown). Finally, to confirm the anti-apoptotic role of cytoplasmic p21^Cip1/WAF1 in PBs we inhibited p21^Cip1/WAF1 expression by a siRNA targeting CDKN1A in in vitro D4 B cells (data not shown) and found an activation of the execution of apoptosis characterized by the detection of the p17-fragment cleavage of caspase 3 in parallel to the cleavage of PARP (data not shown) and similar results were found in XG21 cells (data not shown). […] The role of PIM2 is to stabilize p21^Cip1/WAF1 protein in the cytoplasm allowing therefore the formation a multiprotein complex which inhibits Caspase 3 full activation (data not shown).

On to “5′-CCTCATGACGGATACCTGGAGTC-3′ (all phosphorodiamidate morpholino (PMO)) [SSO-PIM2]”, for which the “cleaved PARP protein” value is listed as “production of cleaved PARP protein”; the mitochondrial depolarization entry is on record as “strong mitochondrial depolarization”; the “pBAD and XIAP protein” value was “decrease of pBAD and XIAP”.
